# Reference: paper PMC9862759 (Viruses, 2023)
# Where “and” joins values, the source holds several entries; their conditions need not be identical. Equal entries are not always repeated. Where two headings read alike, the source gives them in different places.
# Legend:
# HEK-293T-ACE2^h cells = test: MTT cytotoxicity assay on host cells (4 h); format: cell-based, human; conditions: MTT, 4 h
# Beas-2B cells = test: MTT cytotoxicity on human normal cell line Beas-2B (24 h); format: cell-based; conditions: Homo sapiens, BEAS-2B, 24 h, read-out: IC50 Values of Human Normal Cell Lines, Beas-2B
# LO2 cells = test: MTT cytotoxicity on human normal cell line LO2 (24 h); format: cell-based; conditions: Homo sapiens, L02, 24 h, read-out: IC50 Values of Human Normal Cell Lines, LO2
# SARS-CoV-2 pseudovirus [1] = test: microbe, parasite or virus in culture; conditions: Severe acute respiratory syndrome-related coronavirus, read-out: IC50 (inhibition of pseudovirus entry into host cells)
# HEK 293 cells = test: MTT cytotoxicity on human normal cell line HEK 293 (24 h); format: cell-based; conditions: Homo sapiens, HEK293, 24 h, read-out: IC50 Values of Human Normal Cell Lines, HEK 293
# SARS-CoV-2 pseudovirus [2] = conditions: for IC50: read-out: IC50 (inhibition of pseudovirus entry into host cells)
Compound,CC0 (maximum nontoxic concentration) (HEK-293T-ACE2^h cells) [µM],TC50 (concentration reducing cell viability by 50%) (HEK-293T-ACE2^h cells),IC50 (Beas-2B cells) [µM],IC50 (LO2 cells) [µM],IC50 (SARS-CoV-2 pseudovirus [1]) [µM],IC50 (HEK 293 cells) [µM],SI (ratio of TC50 to IC50) (SARS-CoV-2 pseudovirus [2]),IC50 (SARS-CoV-2 pseudovirus [2]) [µM]
"Oc1cc(O)c2c(c1)OC(c1ccc(O)c(O)c1)C(O)C2 (racemic) [compound 21, (±)-Catechin]",300,>500 µM,> 500,> 500,157 ± 12,> 500,>3.19,
"COc1ccc2cc1Oc1ccc(cc1)C[C@H]1c3c(cc4c(c3Oc3cc5c(cc3OC)CCN(C)[C@@H]5C2)OCO4)CCN1C [Cepharanthine, reference compound]",6.25,11.54 µM and 11.54 ± 1.39 µM,26.1 ± 1.08,16.06 ± 0.13,1.3 ± 0.18,24.3 ± 0.22,8.88,
"O=c1cc(-c2ccccc2)oc2cc(O)cc(O)c12 [compound 1, Chrysin]",100,168.50 ± 12.06 µM,,,> 100,,<1.69,
"O=c1cc(-c2ccc(O)cc2)oc2cc(O)cc(O)c12 [compound 2, Apigenin]",50,90.88 ± 3.13 µM,,,> 50,,<1.82,
"O=c1cc(-c2ccc(O)c(O)c2)oc2cc(O)cc(O)c12 [compound 3, Luteolin]",200,>300 µM,> 300,183 ± 10.3,,> 300,,
"O=c1cc(-c2ccc(O)cc2)oc2c([C@@H]3O[C@H](CO)[C@@H](O)[C@H](O)[C@H]3O)c(O)cc(O)c12 [compound 4, Vitexin]",300,>500 µM,,,> 300,,,
"O=c1cc(-c2ccc(O)c(O)c2)oc2c([C@@H]3O[C@H](CO)[C@@H](O)[C@H](O)[C@H]3O)c(O)cc(O)c12 [compound 5, Orientin]",300,>500 µM,> 500,> 500,63.7 ± 9.61,> 500,>7.85,
"CC1OC(OC2C(c3c(O)cc(O)c4c(=O)cc(-c5ccc(O)cc5)oc34)OC(CO)C(O)C2O)C(O)C(O)C1O (centres unmarked) [compound 6, Vitexin-2″-O-rhamnoside]",300,>500 µM,,,> 300,,,
"O=c1cc(-c2ccccc2)oc2cc(O)c(O)c(O)c12 [compound 7, Baicalein]",200,>500 µM,494 ± 9.64,> 500,51 ± 6.48,> 500,>9.80,
"COc1c(O)cc2oc(-c3ccccc3)cc(=O)c2c1O [compound 8, Oroxylin A]",100,>300 µM,> 300,> 300,< 50,> 300,>8.08,37.1 ± 2.58
"O=c1cc(-c2ccc(O)cc2)oc2cc(O)c(O)c(O)c12 [compound 9, Scutellarein]",200,>300 µM,> 300,> 300,< 50,> 300,>10.25,29.3 ± 0.74
"O=c1cc(-c2ccccc2)oc2cc(O[C@@H]3O[C@H](CO)[C@@H](O)[C@H](O)[C@H]3O)c(O)c(O)c12 [compound 10, Oroxin A]",300,>300 µM,> 300,> 300,84.6 ± 10.8,258 ± 10.6,>3.55,
"O=c1cc(-c2ccccc2)oc2cc(O[C@@H]3O[C@H](CO[C@@H]4O[C@H](CO)[C@@H](O)[C@H](O)[C@H]4O)[C@@H](O)[C@H](O)[C@H]3O)c(O)c(O)c12 [compound 11, Oroxin B]",300,>300 µM,> 300,> 300,129 ± 19,> 300,>2.33,
"O=C(O)[C@H]1O[C@@H](Oc2cc3oc(-c4ccccc4)cc(=O)c3c(O)c2O)[C@H](O)[C@@H](O)[C@@H]1O [compound 12, Baicalin]",300,>500 µM,> 500,> 500,110 ± 11,> 500,>4.56,
"COc1c(O[C@@H]2O[C@H](C(=O)O)[C@@H](O)[C@H](O)[C@H]2O)cc(O)c2c(=O)cc(-c3ccccc3)oc12 [compound 13, Wogonoside]",300,>500 µM,> 500,> 500,119 ± 21,> 500,>4.20,
"O=c1c(O[C@@H]2O[C@H](CO)[C@@H](O)[C@H](O)[C@H]2O)c(-c2ccc(O)cc2)oc2cc(O)cc(O)c12 [compound 17, Astragalin]",300,>500 µM,> 500,> 500,133 ± 16.2,> 500,>3.76,
"O=c1c(O[C@@H]2O[C@H](CO)[C@@H](O)[C@H](O)[C@H]2O)c(-c2ccc(O)c(O)c2)oc2cc(O)cc(O)c12 [compound 18, Isoquercitrin]",300,>500 µM,> 500,> 500,94.4 ± 1.59,> 500,>5.30,
"O=c1c(O[C@@H]2O[C@H](CO)[C@H](O)[C@H](O)[C@H]2O)c(-c2ccc(O)c(O)c2)oc2cc(O)cc(O)c12 [compound 19, Hyperoside]",300,>500 µM,> 500,> 500,83.1 ± 10.7,> 500,>6.02,
"C[C@@H]1O[C@@H](OC[C@H]2O[C@@H](Oc3c(-c4ccc(O)c(O)c4)oc4cc(O)cc(O)c4c3=O)[C@H](O)[C@@H](O)[C@@H]2O)[C@H](O)[C@H](O)[C@H]1O [compound 20, Rutin]",300,>500 µM,> 500,> 500,147 ± 21.1,> 500,>3.40,
"Oc1cc(O)c2c(c1)O[C@H](c1ccc(O)c(O)c1)[C@H](O)C2 [compound 22, (-)-Epicatechin]",300,>500 µM,> 500,> 500,146 ± 20.8,> 500,>3.43,
"Oc1cc(O)c2c(c1)O[C@H](c1cc(O)c(O)c(O)c1)[C@H](O)C2 [compound 23, (-)-Epigallocatechin]",200,453.10 ± 4.55 µM,369 ± 1.7,483.3 ± 1.52,74.2 ± 10.7,> 500,6.11,
"O=C(O[C@@H]1Cc2c(O)cc(O)cc2O[C@@H]1c1ccc(O)c(O)c1)c1cc(O)c(O)c(O)c1 [compound 24, (-)-Epicatechin gallate]",300,>500 µM,> 500,> 500,58.8 ± 3.25,> 500,>8.51,
"O=C(O[C@@H]1Cc2c(O)cc(O)cc2O[C@@H]1c1cc(O)c(O)c(O)c1)c1cc(O)c(O)c(O)c1 [compound 25, (-)-Epigallocatechin gallate]",300,>500 µM,> 500,430 ± 6.98,< 50,> 500,,31.3 ± 7.4
"O=C(O[C@@H]1Cc2c(O)cc(O)cc2O[C@H]1c1cc(O)c(O)c(O)c1)c1cc(O)c(O)c(O)c1 [compound 26, (-)-Gallocatechin gallate]",300,>500 µM,> 500,433 ± 8.96,< 50,> 500,>11.52,43.4 ± 2.93
"Oc1cc(O)c2c(c1)O[C@H](c1ccc(O)c(O)c1)[C@H](O)[C@H]2c1c(O)cc(O)c2c1O[C@H](c1ccc(O)c(O)c1)[C@@H](O)C2 [compound 27, Procyanidin B-1]",300,>500 µM,,,> 300,,,
"Oc1cc(O)c2c(c1)O[C@H](c1ccc(O)c(O)c1)[C@H](O)[C@H]2c1c(O)cc(O)c2c1O[C@H](c1ccc(O)c(O)c1)[C@H](O)C2 [compound 28, Procyanidin B-2]",300,>500 µM,,,> 300,,,
"Oc1cc(O)c2c(c1)O[C@H](c1ccc(O)c(O)c1)[C@@H](O)[C@@H]2c1c(O)cc(O)c2c1O[C@H](c1ccc(O)c(O)c1)[C@@H](O)C2 [compound 29, Procyanidin B-3]",300,>500 µM,,,> 300,,,
